{"source": "patent US20090306072A1", "about": "“USE OF TYROSINE KINASE INHIBITORS FOR THE TREATMENT OF INFLAMMATORY PROCESSES” (Boehringer Ingelheim Pharma GmbH & Co. KG, priority 2002, published 2009)", "key": {"[1]": {"system": "cigarette smoke-induced influx of neutrophilic granulocytes into the lung tissue", "assay": "Test 1: inhibition of smoke-induced accumulation of granulocytes in the lung tissue (MPO activity)", "type": "in vivo, rats (Sprague-Dawley)", "details": "for ED50: Rattus norvegicus, read-out: ID50 (dosage that produced a 50% inhibition of the MPO activity)", "method": "Male rats (breed: Sprague-Dawley) weighing from 250-300 g were exposed to the smoke from 8 cigarettes a day for 5 days. […] On the last day of the experiment the animals were killed 4 hours after the final smoke exposure and the lung tissue was removed. From each lung a sample of 70-200 mg was taken and placed in a prepared test tube containing 1 ml of 0.5% hexadecyltrimethyl ammonium bromide. The samples were homogenised for 15 sec with an Ultraturrax. The homogenates were centrifuged off in an Eppendorf bench centrifuge at 15700 g for 5 min at ambient temperature. […] After 10 minutes' incubation at ambient temperature, the absorption was measured with a spectral photometer at a wavelength of 450 nm."}, "[2]": {"system": "zymosan-induced influx of neutrophilic granulocytes in the mouse ear", "assay": "Test 2: inhibition of the zymosan-induced influx of neutrophilic granulocytes in the mouse ear (MPO activity)", "type": "in vivo", "details": "female NMRI mice, ear biopsy 24 h after intradermal zymosan; p<0.005", "text": "• Test 2: Detection of a general anti-inflammatory principle of activity by inhibition of the zymosan-induced influx of neutrophilic granulocytes in the mouse ear by the EGF-receptor kinase inhibitor 4-[(3-chloro-4-fluoro-phenyl)amino]-6-[(4-dimethylamino-cyclohexyl)amino]-pyrimido[5,4-d]pyrimidine (compound N).\nDetermining the influx of neutrophilic granulocytes by measuring the myeloperoxidase (MPO) activity in the tissue. MPO is specific for neutrophilic granulocytes.\nFemale mice (breed: NMRI) weighing 20-25 g were anaesthetised with pentobarbital 60 mg/kg i.p. […] of zymosan dissolved in physiological saline in a volume of […] were administered intradermally into the right ear. 24 h after the intradermal application of zymosan the animals were killed with an overdose of pentobarbital. An ear biopsy (0=8 mm) was taken from the left (untreated) and right (treated) ear and placed in a test tube prepared with 1 ml of 0.5% HTAB. The samples were homogenised for 15 sec with an Ultraturrax. The homogenised preparations were centrifuged for 5 min in an Eppendorf bench centrifuge at 15700 g at ambient temperature. […] After 10 minutes' incubation at ambient temperature the absorption was measured with a spectral photometer at a wavelength of 450 nm."}, "[3]": {"details": "male rats, smoke from 8 cigarettes a day for 5 days, intratracheal dose each day 30 mins before smoke exposure, lung tissue MPO, linear regression"}}}
{"compound": "COC[C@@H]1CN(CC=CC(=O)Nc2cc3c(Nc4ccc(F)c(Cl)c4)ncnc3cc2OCC2CC2)CC(=O)O1", "note": "[H, 4-[(3-chloro-4-fluoro-phenyl)amino]-6-{[4-((S)-2-methoxymethyl-6-oxo-morpholin-4-yl)-1-oxo-2-buten-1-yl]amino}-7-cyclopropylmethoxy-quinazoline]", "values": [{"measurement": "ED50", "setting": "[1]; [3]", "result": 0.3, "unit": "mg/kg"}]}
{"compound": "CCOC(=O)CN(C)CC=CC(=O)Nc1cc2c(Nc3cccc(C)c3)ncnc2cc1OC", "note": "[Example 4, 4-[(3-methylphenyl)amino]-6-[(4-{N-[(ethoxycarbonyl)methyl]-N-methylamino}-1-oxo-2-buten-1-yl)amino]-7-methoxy-quinazoline]", "values": [{"measurement": "melting point", "result": "122 to 124", "unit": "°C"}]}
{"compound": "CN(C)CC=CC(=O)Nc1cc2c(Nc3ccc(F)c(Cl)c3)ncnc2cc1OCC1CC1", "note": "[Example 3(2), 4-[(3-chloro-4-fluorophenyl)amino]-6-{[4-(N,N-dimethylamino)-1-oxo-2-buten-1-yl]-amino}-7-cyclopropylmethoxy-quinazoline]", "values": [{"measurement": "melting point", "result": 137, "unit": "°C"}]}
{"compound": "CN(CC=CC(=O)Nc1cc2c(Nc3ccc(F)c(Cl)c3)ncnc2cc1OC1CCCC1)C1CC1", "note": "[Example 8(9), 4-[(3-chloro-4-fluorophenyl)amino]-6-{[4-(N-cyclopropyl-N-methyl-amino)-1-oxo-2-buten-1-yl]amino}-7-cyclopentyloxy-quinazoline]", "values": [{"measurement": "melting point", "result": 140, "unit": "°C"}]}
{"compound": "COCCN(CC=CC(=O)Nc1cc2c(N[C@H](C)c3ccccc3)ncnc2cc1OCC1CC1)CCOC", "note": "[K, 4-[(R)-(1-phenyl-ethyl)amino]-6-{[4-(N,N-bis-(2-methoxy-ethyl)-amino)-1-oxo-2-buten-1-yl]amino}-7-cyclopropylmethoxy-quinazoline]", "values": [{"measurement": "ED50", "setting": "[1]; [3]", "result": 0.3, "unit": "mg/kg"}]}
{"compound": "C=CC(=O)Nc1cc2c(Nc3ccc(F)c(Cl)c3)ncnc2cc1OCCCCN1CC(=O)O[C@H](C)C1", "note": "[B, 4-[(3-chloro-4-fluoro-phenyl)amino]-7-[4-((R)-6-methyl-2-oxo-morpholin-4-yl)-butyloxy]-6-[(vinylcarbonyl)amino]-quinazoline]", "values": [{"measurement": "ED50", "setting": "[1]; [3]", "result": 0.03, "unit": "mg/kg"}]}
{"compound": "CN(C)C1CCC(Nc2ncc3ncnc(Nc4ccc(F)c(Cl)c4)c3n2)CC1", "note": "(stereo not drawn) [compound N, 4-[(3-chloro-4-fluoro-phenyl)amino]-6-[(4-dimethylamino-cyclohexyl)amino]-pyrimido[5,4-d]pyrimidine]", "values": [{"measurement": "inhibition of the zymosan-induced increase in the MPO activity in the tissue", "setting": "[2]", "result": 60, "unit": "%"}]}
{"compound": "C=CC(=O)Nc1cc2c(Nc3ccc(F)c(Cl)c3)ncnc2cc1OCCCCN1CC(=O)OC(C)(C)C1", "note": "[C, 4-[(3-chloro-4-fluoro-phenyl)amino]-7-[4-(2,2-dimethyl-6-oxo-morpholin-4-yl)-butyloxy]-6-[(vinylcarbonyl)amino]-quinazoline]", "values": [{"measurement": "melting point", "result": "110 to 112", "unit": "°C"}, {"measurement": "ED50", "setting": "[1]; [3]", "result": 0.03, "unit": "mg/kg"}]}
{"compound": "COc1cc2ncnc(Nc3cccc(Br)c3)c2cc1OCCN1CC(=O)O[C@@H](C)C1", "note": "[Example 7, 4-[(3-bromo-phenyl)amino]-6-[2-((S)-6-methyl-2-oxo-morpholin-4-yl)-ethoxy]-7-methoxy-quinazoline]", "values": [{"measurement": "melting point", "result": 190, "unit": "°C"}]}
{"compound": "4-[(3-chloro-4-fluoro-phenyl)amino]-6-[2-((S)-6-methyl-2-oxo-morpholin-4-yl)-ethoxy]-7-methoxy-quinazoline [G]", "values": [{"measurement": "ID50 (dosage that produced a 50% inhibition of the MPO activity)", "setting": "[1]; [3]", "result": "<0.03", "unit": "mg/kg"}]}
{"compound": "C[C@@H](Nc1ncnc2cc(OCC3CC3)c(NC(=O)C=CCN(C)C3CCOCC3)cc12)c1ccccc1", "note": "[L, 4-[(R)-(1-phenyl-ethyl)amino]-6-({4-[N-(tetrahydropyran-4-yl)-N-methyl-amino]-1-oxo-2-buten-1-yl}amino)-7-cyclopropylmethoxy-quinazoline]", "values": [{"measurement": "ED50", "setting": "[1]; [3]", "result": 0.1, "unit": "mg/kg"}]}
{"compound": "C[C@@H]1CN(CC=CC(=O)Nc2cc3c(Nc4ccc(F)c(Cl)c4)ncnc3cc2OCC2CC2)CC(=O)O1", "note": "[F, 4-[(3-chloro-4-fluoro-phenyl)amino]-6-{[4-((R)-6-methyl-2-oxo-morpholin-4-yl)-1-oxo-2-buten-1-yl]amino}-7-cyclopropylmethoxy-quinazoline]", "values": [{"measurement": "ED50", "setting": "[1]; [3]", "result": 0.3, "unit": "mg/kg"}]}
{"compound": "C[C@H]1CN(CC=CC(=O)Nc2cc3c(Nc4ccc(F)c(Cl)c4)ncnc3cc2OCC2CC2)CC(=O)O1", "note": "[Example 6, 4-[(3-chloro-4-fluoro-phenyl)amino]-6-{[4-((S)-6-methyl-2-oxo-morpholin-4-yl)-1-oxo-2-buten-1-yl]amino}-7-cyclopropylmethoxy-quinazoline]", "values": [{"measurement": "melting point", "result": "173 to 175", "unit": "°C"}]}
{"compound": "COCCN(CC=CC(=O)Nc1cc2c(Nc3ccc(F)c(Cl)c3)ncnc2cc1OCC1CC1)CCOC", "note": "[E, 4-[(3-chloro-4-fluoro-phenyl)amino]-6-({4-[bis-(2-methoxyethyl)-amino]-1-oxo-2-buten-1-yl}amino)-7-cyclopropylmethoxy-quinazoline]", "values": [{"measurement": "ED50", "setting": "[1]; [3]", "result": 0.2, "unit": "mg/kg"}]}
{"compound": "CN(C)CC=CC(=O)Nc1cc2c(Nc3ccc(F)c(Cl)c3)ncnc2cc1OC[C@H]1CCCO1", "note": "[Example 8(10), 4-[(3-chloro-4-fluorophenyl)amino]-6-{[4-(N,N-dimethylamino)-1-oxo-2-buten-1-yl]-amino}-7-[(R)-(tetrahydrofuran-2-yl)methoxy]-quinazoline]", "values": [{"measurement": "melting point", "result": "110 to 112", "unit": "°C"}]}
{"compound": "CCN(CC)CC=CC(=O)Nc1cc2c(Nc3ccc(F)c(Cl)c3)ncnc2cc1OCC1CC1", "note": "[Example 3, 4-[(3-chloro-4-fluorophenyl)amino]-6-{[4-(N,N-diethylamino)-1-oxo-2-buten-1-yl]amino}-7-cyclopropylmethoxy-quinazoline]", "values": [{"measurement": "melting point", "result": 114, "unit": "°C"}]}
{"compound": "COc1cc2ncnc(Nc3ccc(F)c(Cl)c3)c2cc1OCCN1CC(=O)O[C@@H](C)C1", "note": "[compound A, 4-[(3-chloro-4-fluoro-phenyl)amino]-6-[2-((S)-6-methyl-2-oxo-morpholin-4-yl)-ethoxy]-7-methoxy-quinazoline]", "values": [{"measurement": "ED50", "setting": "[1]; [3]", "result": 0.1, "unit": "mg/kg"}, {"measurement": "inhibition of the smoke-induced accumulation of granulocytes", "setting": "[1]; rats, intratracheal 0.03 or 0.1 mg/kg daily, lung tissue myeloperoxidase", "result": "significant (p<0.005) inhibition"}]}
{"compound": "C=CC(=O)Nc1cc2c(Nc3ccc(F)c(Cl)c3)ncnc2cc1OCCCCN1CC(=O)O[C@@H](C)C1", "note": "[D, 4-[(3-chloro-4-fluoro-phenyl)amino]-7-[4-((S)-6-methyl-2-oxo-morpholin-4-yl)-butyloxy]-6-[(vinylcarbonyl)amino]-quinazoline]", "values": [{"measurement": "ED50", "setting": "[1]; [3]", "result": 0.3, "unit": "mg/kg"}]}
{"compound": "CCN(CC=CC(=O)Nc1cc2c(N[C@H](C)c3ccccc3)ncnc2cc1OCC1CC1)CCOC", "note": "[I, 4-[(R)-(1-phenyl-ethyl)amino]-6-({4-[N-(2-methoxy-ethyl)-N-ethyl-amino]-1-oxo-2-buten-1-yl}amino)-7-cyclopropylmethoxy-quinazoline]", "values": [{"measurement": "ED50", "setting": "[1]; [3]", "result": 0.2, "unit": "mg/kg"}]}
